The target of the assay is T1, AKT1-E17K (Homo sapiens, UniProt P31749, E17K).
T1 construct: host or cells: HEK-293 (ATCC CRL-1573)
Put plainly: NanoBRET Target Engagement (TE) Assay. The format is cell-based. An excerpt:
The NanoBRET™ Target Engagement (TE) Intracellular Kinase Assays are based on the NanoBRET™ System (Promega Corporation), an energy transfer technique designed to measure molecular proximity in living cells. The NanoBRET™ TE Assays measure the apparent affinity of test compounds by competitive displacement of the NanoBRET™ tracer compound, which is a cell permeable molecule engineered to be reversibly bound to a NanoLuc® luciferase-kinase fusion expressed in cells. For compound screening, when a test compound binds to the selected kinase, the BRET signal is attenuated. […] All cells were evaluated for viability prior to transfection and optimization of the transfection was done prior to experimentation. […] Following transfection, cells were washed and resuspended in Opti-MEM. NanoBRET assays were performed in white, 384-well plates (Corning) at a density of […]. All example compounds were prepared as concentrated stock solutions in DMSO (Sigma-Aldrich). Compounds are dissolved in DMSO to make 10 mM stock solution. […] A Labcyte ECHO 550 compound dispenser was used to facilitate compound transfer directly to cells. Cells were equilibrated for 2 hr with energy transfer probes and example compound prior to BRET measurements. […] For target engagement analysis, the energy transfer probes were added to the cells at concentrations optimized for the target in question (AKT E17K). Following compound incubation, NanoBRET NanoGlo Substrate (Promega Cat #N157D) and Extracellular Nanoluc Inhibitor (Promega Cat #N235C) was added according to the manufacturer's recommended protocol, and luminescence was measured on Envision Reader (Perkin Elmer) Multimode Luminometer equipped with 450 nmBPfilter (donor) and 600 nmLPfilter (acceptor), using 0.5 s integration time. Milli-BRET units (mBU) are calculated by multiplying the raw BRET values by 1000. Apparent tracer affinity values (EC50) were determined using the sigmoidal dose-response (variable slope). Competitive displacement data were then plotted and data were fit to determine the EC50 value for each example compound.

T1 sequence (P31749 whole entry E17K): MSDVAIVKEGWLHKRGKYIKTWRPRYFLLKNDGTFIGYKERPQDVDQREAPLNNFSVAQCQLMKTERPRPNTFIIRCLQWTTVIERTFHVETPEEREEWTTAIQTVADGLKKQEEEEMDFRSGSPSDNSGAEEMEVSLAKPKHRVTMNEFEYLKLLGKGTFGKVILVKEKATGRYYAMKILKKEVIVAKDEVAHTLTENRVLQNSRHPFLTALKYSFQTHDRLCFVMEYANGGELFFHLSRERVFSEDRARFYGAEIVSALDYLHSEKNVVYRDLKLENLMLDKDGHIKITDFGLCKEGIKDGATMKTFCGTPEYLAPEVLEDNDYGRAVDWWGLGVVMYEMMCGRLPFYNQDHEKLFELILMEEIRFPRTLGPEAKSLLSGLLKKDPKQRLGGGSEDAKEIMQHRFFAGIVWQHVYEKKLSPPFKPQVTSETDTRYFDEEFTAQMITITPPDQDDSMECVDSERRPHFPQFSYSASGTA

In turn, `Nc1ncccc1-c1nc2ccc(-c3ccc(Cl)cc3)nc2n1-c1ccc(CN2CCN(c3ccc(C=O)c(O)c3)CC2)cc1` [Example 146, 4-(4-(4-(2-(2-aminopyridin-3-yl)-5-(4-chlorophenyl)-3H-imidazo[4,5-b]pyridin-3-yl)benzyl)piperazin-1-yl)-2-hydroxybenzaldehyde] registered an IC50 greater than 600 nM.

`N#Cc1ccc(-c2ccc3nc(-c4cccnc4N)n(-c4ccc(CN5CCN(C(=O)c6ccc(O)c(C=O)c6)CC5)cc4)c3n2)cc1` [Example 38, 4-(2-(2-Aminopyridin-3-yl)-3-(4-((4-(3-formyl-4-hydroxybenzoyl)piperazin-1-yl)methyl)phenyl)-3H-imidazo[4,5-b]pyridin-5-yl)benzonitrile] returned an IC50 of 60 to 600 nM. As for `Nc1ncccc1-c1nc2ccc(-c3ccccc3)nc2n1-c1ccc(CN2CCC3(CCCN(C(=O)c4ccc(C=O)c(O)c4)C3)C2)cc1` (centres unmarked) [Example 87, 4-(2-(4-(2-(2-Aminopyridin-3-yl)-5-phenyl-3H-imidazo[4,5-b]pyridin-3-yl)benzyl)-2,7-diazaspiro[4.5]decane-7-carbonyl)-2-hydroxybenzaldehyde], the IC50 is 60 to 600 nM.

`Nc1ncccc1-c1nc2ccc(-c3ccccc3)nc2n1-c1ccc(CN2CCCN(C(=O)c3ccc(C=O)c(O)c3)CC2)cc1` [Example 72, 4-(4-(4-(2-(2-Aminopyridin-3-yl)-5-phenyl-3H-imidazo[4,5-b]pyridin-3-yl)benzyl)-1,4-diazepane-1-carbonyl)-2-hydroxybenzaldehyde]: the IC50 lay within 15 to 60 nM.

The compound `Nc1ncccc1-c1nc2ccc(-c3ccccc3)nc2n1-c1ccc(CN2CCN(c3ccc(C=O)c(O)c3)CC2)cc1` [Example 9, 4-(4-(4-(2-(2-Aminopyridin-3-yl)-5-phenyl-3H-imidazo[4,5-b]pyridin-3-yl)benzyl)piperazin-1-yl)-2-hydroxybenzaldehyde] had an IC50 of 15 to 60 nM. The compound `Nc1ncccc1-c1nc2ccc(-c3ccccc3)nc2n1-c1ccc(CN2CCC3(CCCN(C(=O)c4ccc(O)c(C=O)c4)C3)C2)cc1` (centres unmarked) [Example 86, 5-(2-(4-(2-(2-Aminopyridin-3-yl)-5-phenyl-3H-imidazo[4,5-b]pyridin-3-yl)benzyl)-2,7-diazaspiro[4.5]decane-7-carbonyl)-2-hydroxybenzaldehyde] showed an IC50 of 60 to 600 nM. In turn, `Nc1ncccc1-c1nc2ccc(-c3ccccc3)nc2n1-c1ccc(CN2CCC3(CCN(C(=O)c4ccc(C=O)c(O)c4)C3)C2)cc1` (centres unmarked) [Example 81, 4-(7-(4-(2-(2-Aminopyridin-3-yl)-5-phenyl-3H-imidazo[4,5-b]pyridin-3-yl)benzyl)-2,7-diazaspiro[4.4]nonane-2-carbonyl)-2-hydroxybenzaldehyde] returned an IC50 of 60 to 600 nM. Consider `CN(C(=O)c1ccc(O)c(C=O)c1)C1CCN(Cc2ccc(-n3c(-c4cccnc4N)nc4ccc(-c5ccccc5)nc43)cc2)CC1` [Example 55, N-(1-(4-(2-(2-Aminopyridin-3-yl)-5-phenyl-3H-imidazo[4,5-b]pyridin-3-yl)benzyl)piperidin-4-yl)-3-formyl-4-hydroxy-N-methylbenzamide], for which the IC50 lay within 15 to 60 nM. As to `Nc1ncccc1-c1nc2ccc(-c3cccc(=O)[nH]3)nc2n1-c1ccc(CN2CCN(C(=O)c3ccc(C=O)c(O)c3)CC2)cc1` [Example 46, 4-(4-(4-(2-(2-Aminopyridin-3-yl)-5-(6-oxo-1,6-dihydropyridin-2-yl)-3H-imidazo[4,5-b]pyridin-3-yl)benzyl)piperazine-1-carbonyl)-2-hydroxybenzaldehyde], the IC50 is greater than 600 nM. In the case of `Nc1ncccc1-c1nc2ccc(-c3ccccc3)nc2n1-c1ccc(COc2ccc(C=O)c(O)c2)cc1` [Example 138, 4-((4-(2-(2-Aminopyridin-3-yl)-5-phenyl-3H-imidazo[4,5-b]pyridin-3-yl)benzyl)oxy)-2-hydroxybenzaldehyde], the IC50 fell in the range of 60 to 600 nM. As for `Nc1ncccc1-c1nc2ccc(-c3ccccc3)nc2n1-c1ccc(CN2CCC(Oc3ccc(C=O)c(O)c3)CC2)cc1` [Example 129, 4-((1-(4-(2-(2-Aminopyridin-3-yl)-5-phenyl-3H-imidazo[4,5-b]pyridin-3-yl)benzyl)piperidin-4-yl)oxy)-2-hydroxybenzaldehyde], the IC50 lay within 15 to 60 nM. Compound `Nc1ncccc1-c1nc2ccc(-c3ccccc3)nc2n1-c1ccc(CN2CC3CCC2CN3C(=O)c2ccc(O)c(C=O)c2)cc1` (centres unmarked) [Example 126, 5-(5-(4-(2-(2-Aminopyridin-3-yl)-5-phenyl-3H-imidazo[4,5-b]pyridin-3-yl)benzyl)-2,5-diazabicyclo[2.2.2]octane-2-carbonyl)-2-hydroxybenzaldehyde] gave an IC50 of 60 to 600 nM.

`N#Cc1cccc(-c2ccc3nc(-c4cccnc4N)n(-c4ccc(CN5CCN(C(=O)c6ccc(C=O)c(O)c6)CC5)cc4)c3n2)c1` [Example 35, 3-(2-(2-Aminopyridin-3-yl)-3-(4-((4-(4-formyl-3-hydroxybenzoyl)piperazin-1-yl)methyl)phenyl)-3H-imidazo[4,5-b]pyridin-5-yl)benzonitrile] displayed an IC50 of 60 to 600 nM. The value for `Nc1ncccc1-c1nc2ccc(-c3ccccc3)nc2n1-c1ccc(COc2cccc(O)c2C=O)cc1` [Example 137, 2-((4-(2-(2-Aminopyridin-3-yl)-5-phenyl-3H-imidazo[4,5-b]pyridin-3-yl)benzyl)oxy)-6-hydroxybenzaldehyde] was greater than 600 nM; that for `Nc1ncccc1-c1nc2ccc(-c3ccccc3)nc2n1-c1ccc(CN2CC[C@@]3(CCN(C(=O)c4ccc(O)c(C=O)c4)C3)C2)cc1` [Example 98, (R)-5-(7-(4-(2-(2-aminopyridin-3-yl)-5-phenyl-3H-imidazo[4,5-b]pyridin-3-yl)benzyl)-2,7-diazaspiro[4.4]nonane-2-carbonyl)-2-hydroxybenzaldehyde] was 15 to 60 nM. Compound `Nc1ncccc1-c1nc2ccc(-c3ccccc3)nc2n1-c1ccc(CN2CC(NC(=O)c3ccc(C=O)c(O)c3)C2)cc1` [Example 65, N-(1-(4-(2-(2-Aminopyridin-3-yl)-5-phenyl-3H-imidazo[4,5-h]pyridin-3-yl)benzyl)azetidin-3-yl)-4-formyl-3-hydroxybenzamide] gave an IC50 of 15 to 60 nM. The value for `Nc1ncccc1-c1nc2ccc(-c3ccccc3)nc2n1-c1ccc(CN2CCC3(CC2)CCN(c2ccc(C=O)c(O)c2)C3)cc1` [Example 76, 4-(8-(4-(2-(2-Aminopyridin-3-yl)-5-phenyl-3H-imidazo[4,5-b]pyridin-3-yl)benzyl)-2,8-diazaspiro[4.5]decan-2-yl)-2-hydroxybenzaldehyde] was 60 to 600 nM. The value for `C[C@H]1CN(Cc2ccc(-n3c(-c4cccnc4N)nc4ccc(-c5ccccc5)nc43)cc2)CCN1C(=O)c1ccc(C=O)c(O)c1` [Example 106, (S)-4-(4-(4-(2-(2-Aminopyridin-3-yl)-5-phenyl-3H-imidazo[4,5-b]pyridin-3-yl)benzyl)-2-methylpiperazine-1-carbonyl)-2-hydroxybenzaldehyde] was greater than 600 nM; that for `N#Cc1cccc(-c2ccc3nc(-c4cccnc4N)n(-c4ccc(CN5CCN(C(=O)c6ccc(O)c(C=O)c6)CC5)cc4)c3n2)c1` [Example 34, 3-(2-(2-Aminopyridin-3-yl)-3-(4-((4-(3-formyl-4-hydroxybenzoyl)piperazin-1-yl)methyl)phenyl)-3H-imidazo[4,5-b]pyridin-5-yl)benzonitrile] was 60 to 600 nM. With `Nc1ncccc1-c1nc2ccc(-c3ccc(F)cc3)nc2n1-c1ccc(CN2CCN(C(=O)c3ccc(O)c(C=O)c3)CC2)cc1` [Example 143, 5-(4-(4-(2-(2-Aminopyridin-3-yl)-5-(4-fluorophenyl)-3H-imidazo[4,5-b]pyridin-3-yl)benzyl)piperazine-1-carbonyl)-2-hydroxybenzaldehyde], the IC50 was 60 to 600 nM. In turn, `CN(Cc1ccc(-n2c(-c3cccnc3N)nc3ccc(-c4ccccc4)nc32)cc1)c1ccc(O)c(C=O)c1` [Example 18, 5-((4-(2-(2-Aminopyridin-3-yl)-5-phenyl-3H-imidazo[4,5-b]pyridin-3-yl)benzyl)(methyl)amino)-2-hydroxybenzaldehyde] yielded an IC50 greater than 600 nM. `C[C@H]1CN(Cc2ccc(-n3c(-c4cccnc4N)nc4ccc(-c5ccccc5)nc43)cc2)CCN1c1ccc(C=O)c(O)c1` [Example 107, (S)-4-(4-(4-(2-(2-aminopyridin-3-yl)-5-phenyl-3H-imidazo[4,5-b]pyridin-3-yl)benzyl)-2-methylpiperazin-1-yl)-2-hydroxybenzaldehyde] displayed an IC50 of 60 to 600 nM.

As to `Nc1ncccc1-c1nc2ccc(-c3ccc[nH]c3=O)nc2n1-c1ccc(CN2CCN(C(=O)c3ccc(C=O)c(O)c3)CC2)cc1` [Example 15, 4-(4-(4-(2-(2-Aminopyridin-3-yl)-5-(2-oxo-1,2-dihydropyridin-3-yl)-3H-imidazo[4,5-b]pyridin-3-yl)benzyl)piperazine-1-carbonyl)-2-hydroxybenzaldehyde], the IC50 is greater than 600 nM.

(Values after patent US20260365647A1, “AKT1 MODULATORS” (Alterome Therapeutics, Inc., priority 2022, published 2026).)
